# Assay results: patent EP0130882A2, “Bicyclo(3.2.1)octane carboxylic-acid derivatives, processes for their preparation and their therapeutical use” (SANOFI, priority 1983, dated 1985)
# Where two headings read alike, the source gives them in different places.
# How the values were obtained:
# in vivo = experiment: in vivo; design: species or system souris; details: mouse, po
# Excerpt: (§1) L'invention a donc encore pour objet un médicament ayant en particulier des activités anticonvulsivante et antianoxique caractérisé en ce qu'il contient, à titre de principe actif un dérivé de formule I. Tous les essais Toxico-pharmacologiques ont été pratiqués sur des souris mâles de souche CHARLES RIVER (CD1).
# Dans le cadre de cette étude, on a déterminé l'activité sédative des composés de l'invention; on a utilisé dans ce but, le test du cylindre tournant (Boissier, J.R., Therapie 1958, 13,1074).
# Ce test est destiné à apprécier l'aptitude des animaux à coordonner leurs mouvements. Il met en oeuvre un cylindre de bois, d'un diamètre de 4,8 cm, qui-tourne à la vitesse de 4 tours/mn. Le test est pratiqué sur des souris d'un poids 22 g environ. Les produits sont administrés par voie orale à différents lots de 10 animaux. Ces derniers sont placés sur l'appareil 15 minutes après l'administration du produit. On note le pourcentage de souris qui perdent le réflexe d'équilibration, c'est-à-dire qui deviennent incapables de se maintenir sur le cycindre pendant une durée de 2 minutes.
# Par la méthode de Finney, on calcule une dose neuroto- xique 50 (DNT 50) qui exprime donc le niveau moyen -des premières atteintes neuromusculaires sous l'influence d'un produit étudié.
# [1] = tested on: Crise à l'acide B - mercaptopropionique; experiment: B-mercaptopropionic acid seizure test; format: in vivo, souris; details: oral, 15 min before acide B-mercaptopropionique 60 mg/Kg I.P., mouse; read-out: DE 50 (the source's name)
# Excerpt: as §1
# L'acide B-mercaptopropionique est un inhibiteur de la glutamate-décarboxylase (GAD), enzyme qui catalyse la transformation du glutamate en acide Y-aminobutyrique (GABA). Son action se traduit donc par un abaissemement du taux de ŒBA et la survenue de crises généralisées tonico-cloniques 3 à 4 minutes après son administration. L'acide B-mercaptopropionique a été administré aux souris par voie I.P. à la dose de 60 mg/Kg. Le traitement pour les composés à tester est administré par la voie orale 15 minutes avant l'injection d'acide B-mercaptopionique. Les DE 50 exprimées en mg/Kg, ainsi déterminées sont : • Composé N° 2 = 90 • 5 = 30 • 6 = 60 • 7 = 120 • 8 = 70
# [2] = tested on: Crise électrique supramaximale; experiment: Supramaximal electroshock seizure test; format: in vivo, souris; details: po, 0.5 h; per os, 30 min before supramaximal electroshock (50 HZ, 60 volts, 0,4 sec.), mouse; read-out: DE 50 (hyperextension tonique)
# Excerpt: as §1
# Cette expérimentation a été effectuée selon le test de Swinyard et al., (Am.J.Pharmacol, Ther., 1952,168-175). Les traitements ont été administrés per os à des lots de 10 souris 30 mn, avant l'électrochoc supramaximal (courant alternatif de 50 HZ, 60 volts pendant 0,4 sec.) délivré par l'intermédiaire d'électrodes intra-auriculaires. On note le nombre d'animaux dans chaque lot qui ne présentent pas d'hy- perextension tonique lors de la stimulation électrique trans- cranienne, et on détermine la DE 50 exprimée en mg/Kg.
# Crise pentétrazolique = experiment: Pentetrazole seizure test (protection against tonic seizures); format: in vivo, souris; details: read-out: DE 50 (protection contre les crises toniques)
# Excerpt: On note dans chaque lot le pourcentage de protection contre les crises toniques.
# anoxie par confinement = experiment: Anoxia by confinement (antianoxic activity, survival time); format: in vivo, souris; details: I.P. immediately before placing in closed 200 ml vessel, mouse; dose not given
# Excerpt: as §1
# Cette activité a été étudiée par la méthode de l'anoxie par confinement.
# Des souris (20 par lot) sont placées dans une enceinte (bocal en verre) normobare, normoxique, hermétiquement close de 200 ml. Tous les traitements sont administrés par voie I.P. immédiatement avant l'introduction dans l'enceinte. L'animal est considéré comme mort au moment de l'arrêt respiratoire.
# Les bocaux choisis étant très petits, l'activité motrice des animaux est extrêmement faible, ce qui élimine en principe la possibilité d'un résultat positif par effet sédatif. On note dans chaque lot le temps de survie des animaux.
# Crise à la bicuculline = experiment: Bicuculline seizure test; format: in vivo, souris; details: oral, 30 min before bicuculline 0.65 mg/Kg i.v., observed for 30 min, mouse; read-out: DE 50 (convulsions toniques)
# Excerpt: as §1
# Ce test a été effectué selon la méthode de Pérez de la Mora et Tapia (Biochem. Pharmacol., 1973,19,303-310). Les traitements ont été administrés par voie orale à des lots de 10 souris, 30 minutes avant l'injection de bicuculline (0.65 mg/Kg) par la voie intraveineuse. L'apparition des convulsions toniques a été notée pendant les 30 mn qui ont suivi l'injection de bicuculline. Les DE 50 en mg/Kg ainsi déterminées sont : • Composé N° 5 = 68 • 6 = 61 • 7 = 145 • 8 = 75
# [3] = Acute oral toxicity (DL 50, Finney method); design: species or system souris; details: in vivo, mouse
# Procedure: as §1
# Ainsi, la DL 50 déterminée par voie orale chez la souris par la méthode Finney(Probit analysis, University Press Cambridge.,. 1971) est de 3000 mg/Kg pour le dérivé N° 5'et supérieure à 1000 mg/Kg pour tous les composés de l'invention.
# [4] = oral, 15 min before pentétrazole 125 mg/Kg i.p., mouse
SMILES,TD50 at 0.25 h (in vivo),ED50 [1],ED50 [2],ED50 (Crise pentétrazolique; [4]),temps de survie augmenté (anoxie par confinement),ED50 (Crise à la bicuculline),LD50 [3],"ED50 (Crise pentétrazolique; Mus musculus, po)"
"CC1(C(=O)O)CC2CCC(C2)C1 (stereo not shown) [dérivé N° 2, Méthyl-3 bicyclo (3.2.1.) octane carboxylate -3 de sodium]",600 mg/kg,90 mg/kg,400 mg/kg,90 mg/kg,15 p 100,,,
"CC1(C(N)=O)CC2CCC(C2)C1 (stereo not shown) [dérivé N° 5, Méthyl-3 bicyclo (3.2.1.) octane carboxamide-3]",365 mg/kg,30 mg/kg,210 mg/kg,53 mg/kg,25 p 100,68 mg/kg,3000 mg/kg,
"CCC1(C(N)=O)CC2CCC(C2)C1 (stereo not shown) [dérivé N° 6, Ethyl-3 bicyclo (3.2.1.) octane carboxamide-3]",400 mg/kg,60 mg/kg,210 mg/kg,75 mg/kg,,61 mg/kg,,
"CC(C)C1(C(N)=O)CC2CCC(C2)C1 (stereo not shown) [dérivé N° 7, Isopropyl-3 bicyclo (3.2.1.) octane carboxamide -3]",230 mg/kg,120 mg/kg,260 mg/kg,120 mg/kg,,145 mg/kg,,
"CNC(=O)C1(C)CC2CCC(C2)C1 (stereo not shown) [dérivé N° 8, N-Méthyl mêthyl-3 bicyclo (3.2.1.) octane carboxamide-3]",500 mg/kg,70 mg/kg,310 mg/kg,115 mg/kg,,75 mg/kg,,
"CCCC(CCC)C(=O)O [valproate de sodium, reference compound]",,,,,,,,200 mg/kg
